Experiments:
[1] = cumulative release of PDRN and verteporfin in PBS at 37° C.; type: physicochemical; details: from SQPV hydrogel
Raw264.7 cells = assay: macrophage cytoskeleton staining after LPS/IFN-γ induced M1 polarization; type: cell-based; details: M1-induced Raw264.7, cytoskeleton staining
Protocol: The anti-inflammatory properties of SQPV hydrogel prepared in Embodiment 1, SQP hydrogel prepared in Comparative embodiment 1 and SQ hydrogel prepared in Comparative embodiment 2 are investigated. […] Therefore, regulating inflammatory response has become the key focus of developing ideal corneal substitutes. […] In this present disclosure, Raw264.7 cells are inoculated on a 6-well plate for 24 h, and then stimulated with LPS (100 nanograms per milliliter (ng/mL)) and interferon gamma (IFN-γ) (20 ng/mL) for 24 h to induce M1 polarization. Then, fresh hydrogel leaching solution is added, and after 24 h, the cytoskeleton is stained with CLSM to observe the morphological changes of macrophages.

| Substance | time until almost all encapsulated PDRN is released [1] [days] | macrophage polarization (Raw264.7 cells) | cumulative release of verteporfin ([1]; after 28 days of incubation) [%] |
| --- | --- | --- | --- |
| polydeoxyribonucleotide [PDRN] | ≤ 7 | promotes macrophages to have M1 to M2 transformation | – |
| verteporfin [reference compound] | – | – | 72 |

From patent publication US12324769B1, “Double-network versatile hydrogel with antibacterial and drug sequential release capabilities” (Eye Institute of Shandong First Medical University, priority 2023, dated 2025)
